Laboratory results: patent US11536685B2, “High throughput assay for identifying microbial redox enzymes” (TRUSTEES OF BOSTON UNIVERSITY, priority 2020, dated 2022)
Like-named read-outs stand apart in the source and are kept apart here.

Legend:
NicA2 [1] = biological target: T1, NicA2 (Pseudomonas putida, UniProt F8G0P2); test: Chronoamperometric NicA2 electrochemical nicotine biosensor; assay type: biochemical, Pseudomonas putida S16; design: poly-histidine; made in house; host or cells: E. coli BL21 (DE3); conditions: for chronoamperometric response to compound alone: added in the middle of a chronoamperometric experiment
Method: Sensor Preparation: Electrochemical experiments were performed with VersaSTAT MC™ (Ametek Inc.™, Pennsylvania, Pa.). Sensors were prepared with Screen-Printed Prussian Blue/Carbon Electrode (Metrohm USA™, Riverview, Fla.). […] The sensors were allowed to dry overnight at 4° C. with no light prior to use.
Chronoamperometric responses were recorded over time, with a potential −0.2 V (versus Ag/AgCl). […] Similar experiments were performed to evaluate the selectivity of the sensor to cotinine.
The electrochemical biosensor was composed of a Screen-Printed Prussian Blue/Carbon Electrode with a Ag/AgCl reference electrode (RE). […] Chronoamperometric responses were recorded over time with a potential −0.2 V versus the RE.
The selectivity of the biosensor was evaluated by measuring the chronoamperometric response in the presence of common interferents at relevant physiological concentrations in sweat (see e.g., FIG. 22C).

nicA2 [2] = biological target: T2, nicA2 (Pseudomonas putida, UniProt F8G0P2); test: FACS percentage of fluorescent cells on nicA2 induction; assay type: cell-based; conditions: induced with 50 μM IPTG; APEX2, AUR and nicotine present
T2 construct: expressed in transfected cells; host or cells: E. coli
T2 sequence (F8G0P2 39-482): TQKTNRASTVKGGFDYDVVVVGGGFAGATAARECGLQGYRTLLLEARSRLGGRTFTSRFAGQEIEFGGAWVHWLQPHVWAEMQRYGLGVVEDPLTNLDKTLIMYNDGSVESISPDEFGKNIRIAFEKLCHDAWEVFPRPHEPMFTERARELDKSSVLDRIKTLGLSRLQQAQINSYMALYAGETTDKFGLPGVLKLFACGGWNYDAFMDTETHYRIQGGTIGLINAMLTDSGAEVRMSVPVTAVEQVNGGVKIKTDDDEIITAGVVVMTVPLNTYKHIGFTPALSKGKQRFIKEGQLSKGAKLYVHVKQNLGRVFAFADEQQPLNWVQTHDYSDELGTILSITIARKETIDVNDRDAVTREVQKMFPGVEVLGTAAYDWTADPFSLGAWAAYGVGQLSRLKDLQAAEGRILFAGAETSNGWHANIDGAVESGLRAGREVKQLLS

candidate MRE = test: Optimized MRE assay, clone responsive to hydrocortisone; assay type: cell-based; conditions: Rosetta2 (DE3) cells, clone from mixture of seven gDNA libraries
Text: Further analysis of the fluorescence cells identified two clones that expressed a candidate MRE responsive to lidocaine (FIG. 40A) and two clones that were responsive to cortisol (FIG. 40B). Additionally, the inventors also discovered one clone expressing a candidate MRE responsive to hydrocortisone (FIGS. 41A-41F).

NicA2 [3] = biological target: T1, NicA2; test: AUR fluorescence of cells expressing APEX2 and NicA2; assay type: cell-based, Pseudomonas putida S16
[4] = test system: Rosetta2 (DE3) cells expressing MAO; test: Cell viability of Rosetta2 (DE3) cells expressing MAO; assay type: cell-based, E. coli
C41 cells expressing MAO = test: Cell viability of C41 cells expressing MAO; assay type: cell-based, E. coli; conditions: C41 AUR fluorescing cells expressing MAO
C. ammoniagenes MAO = test: AUR fluorescence assay in Rosetta2 (DE3) cells expressing MAO; assay type: cell-based

SMILES	cell viability [4]	cell viability as compared to Rosetta2 (DE3) cells (C41 cells expressing MAO)	AUR fluorescence (C. ammoniagenes MAO)	also measured
CN1C(=O)CC[C@H]1c1cccnc1 [Cotinine]				effect upon the response to nicotine (NicA2 [1]; 200 μM nicotine solution added to solution of the compound): minimal effect
CC(C)S[C@@H]1O[C@H](CO)[C@H](O)[C@H](O)[C@H]1O [IPTG, isopropyl b-D-1-thiogalactopyranoside]				percentage of cells fluorescent (nicA2 [2]): 79.3%
C[C@]12CCC(=O)C=C1CC[C@@H]1[C@@H]2[C@@H](O)C[C@@]2(C)[C@H]1CC[C@]2(O)C(=O)CO [hydrocortisone]				fluorescence over time as compared to no hydrocortisone (candidate MRE): increased fluorescence
c1cncc(C2=NCCC2)c1 [myosmine]				response to nicotine addition after NicA2 was inhibited by myosmine (NicA2 [1]): Minimal responses; chronoamperometric response to compound alone (NicA2 [1]): Minimal responses; chronoamperometric response to compound alone (NicA2 [1]; listed as Myosmine): Minimal response; response to nicotine addition after NicA2 was inhibited by myosmine (NicA2 [1]; listed as Myosmine): Minimal response; fluorescence of cells expressing APEX2 and NicA2 (NicA2 [3]): not
CN1CCCC1c1cccnc1 (stereo not drawn) [nicotine]	substantially decreased			time of return to baseline (NicA2 [1]; 200 μM nicotine): 6000 s; time to maximal current (NicA2 [1]; 200 μM nicotine): 4000 s; Maximal current (NicA2 [1]; 200 μM nicotine, 2 nmol NicA2, −0.2 V versus Ag/AgCl, PBS): ~250 nA; fluorescence of cells expressing APEX2 and NicA2 (NicA2 [3]): robust fluorescence
NCCc1ccc(O)cc1 [tyramine]	do not decrease cell viability	decreased viability	produce fluorescent signal	
NCC(O)c1ccc(O)cc1 (stereo not drawn) [octopamine]	do not decrease cell viability	decreased viability	produce fluorescent signal	
NCc1ccccc1 [benzylamine]	do not decrease cell viability		produce fluorescent signal	
NCCc1c[nH]c2ccccc12 [tryptamine]	do not decrease cell viability	decreased viability	produce fluorescent signal	
